Assay results published in patent US5620959A, “Bombesin antagonists” (Glaxo Wellcome Inc., priority 1990, dated 1997).

Target: 3T3 ROZ cells (Mus musculus, UniProt P21729)
Assay: Inhibition of bombesin-stimulated mitogenesis (3H-thymidine uptake) of quiescent 3T3 ROZ cells
Format: cell-based
Details: compared with the peptide from the other stereoisomer at the hydroxy position; test not named at b235
Experimental: Antagonistic activity was measured by inhibition of the mitogenic stimulation of quiescent 3T3 ROZ cells. […] Cells were incubated for eighteen hours with 10 ng/mL of BN either alone or in the presence of an antagonist. Cells were then pulsed-labeled for 2 hours with ^3 H-thymidine and washed. The incorporated ^3 H was then counted.
Potency of antagonists was measured by inhibition of this maximum response down to baseline level. IC50 values were determined from titration curves.

3T3 ROZ cells, sequence (P21729 whole entry): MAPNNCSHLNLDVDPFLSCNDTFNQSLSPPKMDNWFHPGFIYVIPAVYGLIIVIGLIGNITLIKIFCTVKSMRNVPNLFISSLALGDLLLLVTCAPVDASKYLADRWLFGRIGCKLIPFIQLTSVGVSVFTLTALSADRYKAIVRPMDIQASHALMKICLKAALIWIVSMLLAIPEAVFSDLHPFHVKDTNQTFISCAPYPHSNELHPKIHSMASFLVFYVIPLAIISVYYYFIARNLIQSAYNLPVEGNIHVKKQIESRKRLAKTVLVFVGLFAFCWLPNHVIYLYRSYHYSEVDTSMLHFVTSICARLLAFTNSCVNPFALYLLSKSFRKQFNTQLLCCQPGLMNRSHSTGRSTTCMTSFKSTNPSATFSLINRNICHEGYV

How did the “relative activity of the two peptides made from the two hydroxy stereoisomers” value turn out when `CC(C)[C@H](NC(=O)[C@H](C)NC(=O)[C@H](Cc1c[nH]c2ccccc12)NC(=O)[C@H](Cc1c[nH]cn1)NC(=O)CCc1ccccc1)C(=O)N[C@H](C)C(=O)N[C@@H](Cc1c[nH]cn1)C(=O)N1CCC[C@@H]1C(O)CC(=O)N[C@@H](Cc1ccccc1)C(N)=O` (single isomer, unassigned) [N--((3-Phenyl)Propionyl)--HisTrpAlaVal D--AlaHis(3-(2-Pyrrolidinyl-3Hydroxy)Propionyl)--Phe--NH2] was run?
Its value is “the more active of the two”.
